Five compounds from patent US20260001928A1 (CORTERIA PHARMACEUTICALS, priority 2022, published 2026) can be followed below.

In one assay the target is T1, human CRF2a receptor (Homo sapiens, UniProt Q13324).
T1 construct: expressed in transfected cells; host or cells: TeloHEAC cells
T1 sequence (Q13324 1-411): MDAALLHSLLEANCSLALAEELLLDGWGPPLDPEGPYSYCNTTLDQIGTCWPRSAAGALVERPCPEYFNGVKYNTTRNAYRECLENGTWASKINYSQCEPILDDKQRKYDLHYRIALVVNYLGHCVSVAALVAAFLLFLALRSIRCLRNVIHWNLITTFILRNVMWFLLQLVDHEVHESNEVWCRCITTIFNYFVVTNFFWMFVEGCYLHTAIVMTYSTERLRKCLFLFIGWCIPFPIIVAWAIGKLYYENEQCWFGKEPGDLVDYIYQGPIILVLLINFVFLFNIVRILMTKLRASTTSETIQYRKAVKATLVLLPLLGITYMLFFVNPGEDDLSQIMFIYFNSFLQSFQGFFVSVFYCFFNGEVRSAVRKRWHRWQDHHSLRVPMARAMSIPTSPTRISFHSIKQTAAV
Nature of the assay: Activity at human CRF2a receptor, cAMP functional assay in TeloHEAC cells. It is filed as cell-based. The settings on record: TeloHEAC cells stably expressing human CRF2a receptor, relative to urocortin 2 (100 nM = 100%). The procedure, abridged: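 TeloHEAC cells stably expressing human CRF2a (10000 cells/well) were treated with 16-point 1:2 compound dilutions in HBSS/20 mM HEPES with IBMX for 30 min at 37° C. cAMP was read by HTRF (665/620 nm ratio). EC50 was the concentration giving 50% activation, with 100 nM urocortin 2 set as 100%.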

The target in another assay is T2, CFR1R receptor (Homo sapiens, UniProt P34998).
T2 construct: host or cells: CHO-K1 (clone 2)
T2 sequence (P34998 24-415): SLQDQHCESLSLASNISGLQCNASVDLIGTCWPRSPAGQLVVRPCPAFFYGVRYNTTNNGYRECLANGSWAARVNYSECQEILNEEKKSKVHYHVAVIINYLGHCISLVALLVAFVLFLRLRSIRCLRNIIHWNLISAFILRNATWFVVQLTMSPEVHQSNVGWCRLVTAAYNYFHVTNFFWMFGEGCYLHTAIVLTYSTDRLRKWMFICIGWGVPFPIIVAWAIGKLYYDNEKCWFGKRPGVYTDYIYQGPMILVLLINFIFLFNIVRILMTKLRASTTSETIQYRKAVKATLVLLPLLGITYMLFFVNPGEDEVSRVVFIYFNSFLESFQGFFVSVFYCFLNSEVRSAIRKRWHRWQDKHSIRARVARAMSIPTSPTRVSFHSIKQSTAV
Description: Activity at anti-target CFR1R receptor, cAMP assay in CRF1R-overexpression CHO-K1 cells. It is filed as cell-based. The settings on record: 100% = Sauvagine at 100 nM; for EC50: cAMP. The essentials: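 Run as for the TeloHAEC line, except the full-activation control well received Sauvagine (100 nM) and final density was 4000 cells/well. Cells from clone 2 came from frozen aliquots of near-confluent cultures.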

Molecules are shown by their SMILES. *1 amine or outer side, *2 acyl side, *3 side chain or, on linkers, in order; H or OH if unused. Where a SMILES comes first, the peptide text is derived from it. Side-chain parts run from the residue outwards. [ ]: non-standard residue; d: D form. The star is where a group is joined. C16 diacid = O=C(O)CCCCCCCCCCCCCCC(=O)*; γGlu = O=C(O)[C@H](CCC(=O)[*:2])N[*:1]; αMeL = CC(C)C[C@](C)(N)C(=O)O; Aib = CC(C)(N)C(=O)O

What is called EC50 is the concentration that produces a half-maximal response. A lower EC50 goes with a more potent agent.

On human CRF2a receptor, `CC[C@H](C)[C@H](NC(=O)[C@H](CCC(N)=O)NC(=O)C(C)(C)NC(=O)[C@H](CC(N)=O)NC(=O)[C@@H](NC(=O)[C@H](CCC(=O)O)NC(=O)[C@H](C)NC(=O)[C@H](CCC(N)=O)NC(=O)[C@H](CCC(=O)O)NC(=O)[C@H](CCCNC(=N)N)NC(=O)[C@H](CCC(N)=O)NC(=O)[C@H](CCCCN)NC(=O)[C@H](CCCCN)NC(=O)[C@H](CCC(N)=O)NC(=O)[C@H](CCCCN)NC(=O)[C@H](CCC(=O)O)NC(=O)[C@H](CCC(N)=O)NC(=O)[C@H](CCC(=O)O)NC(=O)[C@H](CC(C)C)NC(=O)[C@H](CC(C)C)NC(=O)[C@@H](NC(=O)[C@H](CCCCN)NC(=O)[C@H](CCCCNC(=O)CC[C@H](NC(=O)CCCCCCCCCCCCCCC(=O)O)C(=O)O)NC(=O)[C@](C)(CC(C)C)NC(=O)[C@H](CCCCN)NC(=O)[C@@H](NC(=O)[C@@H]1CCCN1C(=O)[C@H](NC(=O)[C@H](CC(=O)O)NC(=O)[C@H](CC(C)C)NC(=O)[C@H](CO)NC(=O)[C@H](CC(C)C)NC(=O)[C@@H](NC(C)=O)C(C)C)C(C)C)[C@@H](C)CC)[C@@H](C)CC)[C@@H](C)O)C(=O)N[C@@H](CC(C)C)C(=O)N[C@@H](C)C(=O)N[C@@H](CCC(N)=O)C(=O)N[C@H](C(N)=O)C(C)C` [compound 46] (Ac-VLSLD[dV]PIK[αMeL]K([γGlu-C16 diacid])KILLEQEKQKKQREQAETN[Aib]QILAQV-NH2) had an EC50 of 0.7 nM. At CFR1R receptor, the “Emax (% I)” value is 6 % I and the EC50 is > 250 nM.

As to `CC[C@H](C)[C@H](NC(C)=O)C(=O)N[C@H](C(=O)N[C@@H](CC(C)C)C(=O)N[C@@H](CO)C(=O)N[C@@H](CC(C)C)C(=O)N[C@@H](CC(=O)O)C(=O)N[C@@H](C(=O)N1CCC[C@H]1C(=O)N[C@H](C(=O)N[C@@H](CCCCN)C(=O)N[C@@H](CC(C)C)C(=O)N[C@@H](CCCCNC(=O)CC[C@H](NC(=O)CCCCCCCCCCCCCCC(=O)O)C(=O)O)C(=O)N[C@@H](CCCCN)C(=O)N[C@H](C(=O)N[C@@H](CC(C)C)C(=O)N[C@@H](CC(C)C)C(=O)N[C@@H](CCC(=O)O)C(=O)N[C@@H](CCC(N)=O)C(=O)N[C@@H](CCC(=O)O)C(=O)N[C@@H](CCCCN)C(=O)N[C@@H](CCC(N)=O)C(=O)N[C@@H](CCCCN)C(=O)N[C@@H](CCCCN)C(=O)N[C@@H](CCC(N)=O)C(=O)N[C@@H](CCCNC(=N)N)C(=O)N[C@@H](CCC(=O)O)C(=O)N[C@@H](CCC(N)=O)C(=O)N[C@@H](C)C(=O)N[C@@H](CCC(=O)O)C(=O)N[C@H](C(=O)N[C@@H](CC(N)=O)C(=O)N[C@H](C(=O)N[C@@H](CCC(N)=O)C(=O)N[C@H](C(=O)N[C@@H](CC(C)C)C(=O)N[C@@H](C)C(=O)N[C@@H](CCC(N)=O)C(=O)N[C@H](C(N)=O)C(C)C)[C@@H](C)CC)C(C)C)[C@@H](C)O)[C@@H](C)CC)[C@@H](C)CC)C(C)C)C(C)C` [compound 48] (Ac-IVLSLD[dV]PIKLK([γGlu-C16 diacid])KILLEQEKQKKQREQAETNVQILAQV-NH2), the EC50 on human CRF2a receptor was determined as 1.35 nM. In addition, at CFR1R receptor, the “Emax (% I)” value turned out to be 4 % I and the EC50 is > 250 nM.

On to `CC[C@H](C)[C@H](NC(C)=O)C(=O)N[C@H](C(=O)N[C@@H](CC(C)C)C(=O)N[C@@H](CO)C(=O)N[C@@H](CC(C)C)C(=O)N[C@@H](CC(=O)O)C(=O)N[C@H](C(=O)N1CCC[C@H]1C(=O)N[C@H](C(=O)N[C@@H](CCCCN)C(=O)N[C@@](C)(CC(C)C)C(=O)N[C@@H](CCCCNC(=O)CC[C@H](NC(=O)CCCCCCCCCCCCCCC(=O)O)C(=O)O)C(=O)N[C@@H](CCCCN)C(=O)N[C@H](C(=O)N[C@@H](CC(C)C)C(=O)N[C@@H](CC(C)C)C(=O)N[C@@H](CCC(=O)O)C(=O)N[C@@H](CCC(N)=O)C(=O)N[C@@H](CCC(=O)O)C(=O)N[C@@H](CCCCN)C(=O)N[C@@H](CCC(N)=O)C(=O)N[C@@H](CCCCN)C(=O)N[C@@H](CCCCN)C(=O)N[C@@H](CCC(N)=O)C(=O)N[C@@H](CCCNC(=N)N)C(=O)N[C@@H](CCC(=O)O)C(=O)N[C@@H](CCC(N)=O)C(=O)N[C@@H](C)C(=O)N[C@@H](CCC(=O)O)C(=O)N[C@H](C(=O)N[C@@H](CC(N)=O)C(=O)N[C@H](C(=O)N[C@@H](CCC(N)=O)C(=O)N[C@H](C(=O)N[C@@H](CC(C)C)C(=O)N[C@@H](C)C(=O)N[C@@H](CCC(N)=O)C(=O)N[C@H](C(N)=O)C(C)C)[C@@H](C)CC)C(C)C)[C@@H](C)O)[C@@H](C)CC)[C@@H](C)CC)C(C)C)C(C)C` [compound 49] (Ac-IVLSLDVPIK[αMeL]K([γGlu-C16 diacid])KILLEQEKQKKQREQAETNVQILAQV-NH2), for which the EC50 on human CRF2a receptor was 0.92 nM. Besides, on CFR1R receptor, the “Emax (% I)” value was −3 % I and the EC50 is > 250 nM.

Turning to `CC[C@H](C)[C@H](NC(C)=O)C(=O)N[C@H](C(=O)N[C@@H](CC(C)C)C(=O)N[C@@H](CO)C(=O)N[C@@H](CC(C)C)C(=O)N[C@@H](CC(=O)O)C(=O)N[C@@H](C(=O)N1CCC[C@H]1C(=O)N[C@H](C(=O)N[C@@H](CCCCN)C(=O)N[C@@](C)(CC(C)C)C(=O)N[C@@H](CCCCNC(=O)CC[C@H](NC(=O)CCCCCCCCCCCCCCC(=O)O)C(=O)O)C(=O)N[C@@H](CCCCN)C(=O)N[C@H](C(=O)N[C@@H](CC(C)C)C(=O)N[C@@H](CC(C)C)C(=O)N[C@@H](CCC(=O)O)C(=O)N[C@@H](CCC(N)=O)C(=O)N[C@@H](CCC(=O)O)C(=O)N[C@@H](CCCCN)C(=O)N[C@@H](CCC(N)=O)C(=O)N[C@@H](CCCCN)C(=O)N[C@@H](CCCCN)C(=O)N[C@@H](CCC(N)=O)C(=O)N[C@@H](CCCNC(=N)N)C(=O)N[C@@H](CCC(=O)O)C(=O)N[C@@H](CCC(N)=O)C(=O)N[C@@H](C)C(=O)N[C@@H](CCC(=O)O)C(=O)N[C@H](C(=O)N[C@@H](CC(N)=O)C(=O)N[C@H](C(=O)N[C@@H](CCC(N)=O)C(=O)N[C@H](C(=O)N[C@@H](CC(C)C)C(=O)N[C@@H](C)C(=O)N[C@@H](CCC(N)=O)C(=O)N[C@H](C(N)=O)C(C)C)[C@@H](C)CC)C(C)C)[C@@H](C)O)[C@@H](C)CC)[C@@H](C)CC)C(C)C)C(C)C` [compound 50] (Ac-IVLSLD[dV]PIK[αMeL]K([γGlu-C16 diacid])KILLEQEKQKKQREQAETNVQILAQV-NH2), at human CRF2a receptor, it took 0.26 nM to reach a half-maximal effect (EC50). In addition, at CFR1R receptor, the “Emax (% I)” value is on record as 9 % I and the EC50 is > 250 nM.

`CC[C@H](C)[C@H](NC(C)=O)C(=O)N[C@H](C(=O)N[C@@H](CC(C)C)C(=O)N[C@@H](CO)C(=O)N[C@@H](CC(C)C)C(=O)N[C@@H](CC(=O)O)C(=O)N[C@@H](C(=O)N1CCC[C@H]1C(=O)N[C@H](C(=O)N[C@@H](CCCCN)C(=O)N[C@@](C)(CC(C)C)C(=O)N[C@@H](CCCCNC(=O)CC[C@H](NC(=O)CCCCCCCCCCCCCCC(=O)O)C(=O)O)C(=O)N[C@@H](CCCCN)C(=O)N[C@H](C(=O)N[C@@H](CC(C)C)C(=O)N[C@@H](CC(C)C)C(=O)N[C@@H](CCC(=O)O)C(=O)N[C@@H](CCC(N)=O)C(=O)N[C@@H](CCC(=O)O)C(=O)N[C@@H](CCCCN)C(=O)N[C@@H](CCC(N)=O)C(=O)N[C@@H](CCCCN)C(=O)N[C@@H](CCCCN)C(=O)N[C@@H](CCC(N)=O)C(=O)N[C@@H](CCCNC(=N)N)C(=O)N[C@@H](CCC(=O)O)C(=O)N[C@@H](CCC(N)=O)C(=O)N[C@@H](C)C(=O)N[C@@H](CCC(=O)O)C(=O)N[C@H](C(=O)N[C@@H](CC(=O)O)C(=O)N[C@@H](CCCCN)C(=O)N[C@@H](CCC(N)=O)C(=O)N[C@H](C(=O)N[C@@H](CC(C)C)C(=O)N[C@@H](C)C(=O)N[C@@H](CCC(N)=O)C(=O)N[C@H](C(N)=O)C(C)C)[C@@H](C)CC)[C@@H](C)O)[C@@H](C)CC)[C@@H](C)CC)C(C)C)C(C)C` [compound 53] (Ac-IVLSLD[dV]PIK[αMeL]K([γGlu-C16 diacid])KILLEQEKQKKQREQAETDKQILAQV-NH2) yielded an EC50 on human CRF2a receptor of 8.05 nM. On CFR1R receptor, the “Emax (% I)” value is 5 % I and the EC50 is > 250 nM.
